According to the NIST ThermoML archive (doi:10.1016/j.fluid.2011.02.002):
“And” between values parts separate entries of the source, which are not always exact repeats. Equal entries are not always repeated. Numbers after ± are expanded uncertainties.

How the values were obtained:
[1] = Closed cell (Static) method
[2] = molar heat capacity at constant pressure; conditions: 101.33 kPa, Liquid, Small sample (50 mg) DSC

C[S+](C)[O-] [dimethyl sulfoxide]
[1]
Conditions | vapor or sublimation pressure
273.65 K, Crystal | 0.00789 ± 0.00032 kPa
275.65 K, Crystal | 0.00979 ± 0.0004 kPa
278.15 K, Crystal | 0.01278 ± 0.00051 kPa and 0.01277 ± 0.00051 kPa and 0.01275 ± 0.00051 kPa
280.64 K, Crystal | 0.01655 ± 0.00057 kPa
280.65 K, Crystal | 0.01656 ± 0.00057 kPa
283.15 K, Crystal | 0.02138 ± 0.00065 kPa and 0.02137 ± 0.00065 kPa
285.65 K, Crystal | 0.02752 ± 0.00074 kPa and 0.02751 ± 0.00074 kPa
288.15 K, Crystal | 0.03531 ± 0.00087 kPa and 0.03525 ± 0.00086 kPa
290.65 K, Crystal | 0.04487 ± 0.001 kPa and 0.04486 ± 0.001 kPa
293.15 K, Liquid | 0.05512 ± 0.0012 kPa and 0.05509 ± 0.0012 kPa and 0.0551 ± 0.0012 kPa
295.65 K, Liquid | 0.06631 ± 0.0014 kPa and 0.06632 ± 0.0014 kPa and 0.06633 ± 0.0014 kPa
298.15 K, Liquid | 0.07965 ± 0.0016 kPa and 0.07966 ± 0.0016 kPa and 0.07964 ± 0.0016 kPa
300.65 K, Liquid | 0.09517 ± 0.0018 kPa and 0.09518 ± 0.0018 kPa
303.16 K, Liquid | 0.1134 ± 0.0021 kPa
305.66 K, Liquid | 0.1346 ± 0.0021 kPa
308.16 K, Liquid | 0.1592 ± 0.0023 kPa

O=S1(=O)CCCC1 [sulfolane]
[1], Liquid
Conditions | vapor or sublimation pressure
302.16 K | 0.00146 ± 0.00012 kPa
303.17 K | 0.00155 ± 0.00012 kPa and 0.00158 ± 0.00012 kPa
305.17 K | 0.00188 ± 0.00013 kPa and 0.00187 ± 0.00013 kPa
306.17 K | 0.00203 ± 0.00013 kPa
307.17 K | 0.00223 ± 0.00014 kPa and 0.00224 ± 0.00014 kPa and 0.0022 ± 0.00014 kPa
308.17 K | 0.00241 ± 0.00014 kPa and 0.0024 ± 0.00014 kPa

[2]
Conditions | molar heat capacity at constant pressure
304.04 K | 179.5 ± 4.4 J/K/mol and 179.9 ± 4.4 J/K/mol
309.14 K | 181.3 ± 4.4 J/K/mol
309.15 K | 181.6 ± 4.4 J/K/mol
314.25 K | 182.6 ± 4.5 J/K/mol and 183.8 ± 4.5 J/K/mol
319.35 K | 184.7 ± 4.5 J/K/mol and 184.5 ± 4.5 J/K/mol
324.46 K | 185.3 ± 4.5 J/K/mol and 184.4 ± 4.5 J/K/mol
329.56 K | 187.4 ± 4.6 J/K/mol and 186.6 ± 4.6 J/K/mol
334.66 K | 188.7 ± 4.6 J/K/mol
334.67 K | 187.9 ± 4.6 J/K/mol
339.77 K | 189.7 ± 4.6 J/K/mol and 188.5 ± 4.6 J/K/mol
344.88 K | 190.2 ± 4.7 J/K/mol
349.98 K | 192.5 ± 4.7 J/K/mol and 192 ± 4.7 J/K/mol
355.09 K | 193.4 ± 4.7 J/K/mol and 192.3 ± 4.7 J/K/mol
